Data taken from patent publication US6673555B1, “Methods of using SCAP antagonists” (SmithKline Beecham Corporation, priority 1999, dated 2004).
Blank lines part the entries; values can stand above or below the molecule they belong to.

What was measured:
full length hamster SCAP = target: T1, full length hamster SCAP (Cricetulus griseus, UniProt P97260); test: Photo-affinity labelling / competition binding on full length SCAP in infected Sf-9 cells
T1 construct: recombinant baculovirus encoding for full length hamster SCAP containing a T7 tag; expressed in transfected cells; host or cells: Sf-9 insect cells infected with recombinant baculovirus (pTen12 transfer vector)
T1 sequence (P97260 1-1276): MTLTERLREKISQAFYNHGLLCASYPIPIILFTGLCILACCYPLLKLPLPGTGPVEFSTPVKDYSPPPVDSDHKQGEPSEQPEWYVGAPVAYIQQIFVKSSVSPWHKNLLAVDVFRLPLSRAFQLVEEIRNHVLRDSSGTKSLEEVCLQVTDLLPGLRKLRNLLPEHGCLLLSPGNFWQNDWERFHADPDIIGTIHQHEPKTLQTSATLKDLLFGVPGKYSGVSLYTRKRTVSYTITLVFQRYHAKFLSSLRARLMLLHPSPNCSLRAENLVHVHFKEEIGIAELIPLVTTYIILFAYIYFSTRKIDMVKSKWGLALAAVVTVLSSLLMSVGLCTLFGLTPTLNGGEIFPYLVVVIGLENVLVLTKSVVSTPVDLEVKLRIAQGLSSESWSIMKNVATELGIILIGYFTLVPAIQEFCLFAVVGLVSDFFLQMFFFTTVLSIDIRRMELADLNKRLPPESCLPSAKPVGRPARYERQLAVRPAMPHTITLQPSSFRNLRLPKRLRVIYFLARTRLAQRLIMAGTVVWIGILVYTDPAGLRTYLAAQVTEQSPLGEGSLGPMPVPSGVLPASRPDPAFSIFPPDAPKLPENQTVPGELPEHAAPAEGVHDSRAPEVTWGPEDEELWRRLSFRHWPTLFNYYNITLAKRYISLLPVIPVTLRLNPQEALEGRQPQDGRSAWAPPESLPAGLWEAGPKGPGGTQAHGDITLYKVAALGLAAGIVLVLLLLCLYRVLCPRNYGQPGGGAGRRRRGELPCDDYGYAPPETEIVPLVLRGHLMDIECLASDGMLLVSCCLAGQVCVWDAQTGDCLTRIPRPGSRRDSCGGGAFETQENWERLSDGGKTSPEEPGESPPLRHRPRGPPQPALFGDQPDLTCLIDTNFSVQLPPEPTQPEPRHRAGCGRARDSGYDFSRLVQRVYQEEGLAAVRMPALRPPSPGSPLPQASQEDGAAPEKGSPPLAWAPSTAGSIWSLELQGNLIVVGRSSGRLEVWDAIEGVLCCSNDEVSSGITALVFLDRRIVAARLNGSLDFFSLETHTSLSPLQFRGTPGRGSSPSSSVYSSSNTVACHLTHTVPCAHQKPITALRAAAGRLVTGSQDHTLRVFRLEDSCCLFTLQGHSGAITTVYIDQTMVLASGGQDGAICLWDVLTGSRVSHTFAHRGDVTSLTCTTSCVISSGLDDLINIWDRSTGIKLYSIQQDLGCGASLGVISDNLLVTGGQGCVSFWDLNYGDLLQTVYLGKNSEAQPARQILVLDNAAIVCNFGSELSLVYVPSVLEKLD
Protocol: Hamster SCAP cDNA was cut from pTK-HSV-SCAP-T7 using BgIII and Xbal and re-cloned in pTen 12 transfer vector. Recombinant baculovirus clones were produced by Quantum Biotechnologies Inc. and screened by western blots using T7-tag antibodies on Sf-9 infected cells. Sf-9 cells were grown in CCM-3 medium at 28° C. and seeded at 8×10^6 cells per 75 cm^2 flask. Four hours later they were infected with 200×10^6 pfu of baculovirus and incubated 3 days before harvest. […]
(§1) Infected Sf-9 cells were harvested, washed in Dulbecco phosphate buffered saline and 2×10^5 cells were incubated with test compounds and the control (^14C radio-labeled Example 2 ) for 30 min at 28° C. in 24 well plates. […] The radioactivity was detected using a Phosporlmager screen (Molecular Dynamics).
Sf-9 insect cells were infected with recombinant baculovirus encoding for full length hamster SCAP containing a T7 tag (FIG. 1A). Total protein (10 μg) from control cells (lanes b, d) or infected cells (lanes a, c) were analyzed by SDS-PAGE and either stained using Coomassie blue (lanes a, b) or blotted on nitrocellulose membrane following immuno-detection with T7 tag monoclonal antibody (lanes c, d). […] The gel was dried and radioactivity detected using Phosphor Imager Screen.

[1] = target: T2, truncated form of SCAP corresponding to amino acid 2 to 473 (Cricetulus griseus, UniProt P97260); test: Photo-affinity labelling / competition binding on truncated SCAP (amino acid 2 to 473) in Sf-9 cell membranes; parameters: species or system hamster
T2 construct: a truncated form of SCAP corresponding to amino acid 2 to 473; expressed in transfected cells; host or cells: Sf-9 insect cells infected with recombinant baculovirus (Gateway pDest10 bacmid); membranes analysed
T2 sequence (P97260 2-473): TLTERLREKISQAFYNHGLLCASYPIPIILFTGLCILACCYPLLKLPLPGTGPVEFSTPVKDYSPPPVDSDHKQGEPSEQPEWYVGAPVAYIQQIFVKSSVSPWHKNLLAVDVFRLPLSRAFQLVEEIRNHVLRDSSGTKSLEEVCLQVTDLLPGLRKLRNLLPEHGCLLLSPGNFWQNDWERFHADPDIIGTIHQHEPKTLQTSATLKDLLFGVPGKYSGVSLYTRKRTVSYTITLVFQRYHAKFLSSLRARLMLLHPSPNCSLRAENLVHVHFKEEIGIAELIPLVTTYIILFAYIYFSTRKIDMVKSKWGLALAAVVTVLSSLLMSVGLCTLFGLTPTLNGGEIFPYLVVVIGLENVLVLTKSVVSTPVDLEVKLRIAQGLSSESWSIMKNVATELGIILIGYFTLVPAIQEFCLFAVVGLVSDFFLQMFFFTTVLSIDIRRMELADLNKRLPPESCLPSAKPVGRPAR
Protocol: Hamster SCAP cDNA was cut from pTK-HSV-SCAP-T7 using BgIII and Xbal and re-cloned in pTen 12 transfer vector. Recombinant baculovirus clones were produced by Quantum Biotechnologies Inc. and screened by western blots using T7-tag antibodies on Sf-9 infected cells. Sf-9 cells were grown in CCM-3 medium at 28° C. and seeded at 8×10^6 cells per 75 cm^2 flask. Four hours later they were infected with 200×10^6 pfu of baculovirus and incubated 3 days before harvest. Truncated SCAP corresponding to amino acid 2 to 473 was produced by PCR amplification with Platinium Pfx polymerase using pTK-HSV-SCAP-T7 as template and primers containing attB1 sequence followed by SEQ ID NO: 1 […] and the complement strand of attB2 sequence followed by SEQ ID NO: 2 […]. After recombination into pDonR201 vector using the Gateway cloning system, the inserts were recloned into pDest10 vector using LR recombinase. The corresponding bacmids and recombinant baculovirus were produced according the manufacturer instructions.
A competition binding assay using recombinant SCAP protein was developed in Sf-9 insect cells. […]
as §1, with “Dynamics). […]” for “Dynamics).”

[2] = tested on: human LDL-receptor promoter; test: LDL-receptor promoter luciferase reporter assay in transfected HepG2 cells; assay type: cell-based
Text: The human LDL-receptor promoter named p-588 corresponding to nucleotide −588 to +91 relative to the major transcription site was cloned by PCR from human genomic DNA (Clonetech) using SEQ ID NO: 3 […] and SEQ ID NO: 4 […] primers. and inserted into pGL3-basic vector (Promega) at Hind-III and Nco-I sites. The sequencing was identical to published promoter (Genbank L29401). Shorter promoters were obtained by PCR sub-cloning using Kpn-I and Nar-I sites. The primer SEQ ID NO: 5 […] corresponding to luciferase coding sequence was used as reverse primer for all constructs. The following primers were used to produce respectively p-149, p-118, p-70, p-53 and p-31 promoters: SEQ ID NO: 6 […], SEQ ID NO: 7 […], SEQ ID NO: 8 […], SEQ ID NO: 9 […] and SEQ ID NO: 10 […]. A vector containing the 38 bp of the minimal promoter of adenovirus Major Late Promoter (Ham. J. et al., EMBO, 10: 2931-2940 (1991)) was produced using Bgl-II and Hind-III site in pGL3-basic. Four repeats of the SRE sequence present on the human LDL-receptor promoter were introduced in p-MLP vector using Bgl-II site, SEQ ID NO: 11 […] and complementary oligo. HepG2 cells seeded the previous day at 3 10^5 cells per well of 24 well plate were transfected with 1 μg of LDL-promoter containing vector together with p-RL-TK control vector (Promega) using Fugene 6 (Boehringer). HepG2 cells were incubated for 28 hours in the presence of SCAP antagonist and/or 25OH-cholesterol. Firefly luciferase and Renila activity were measured using Dual Luciferase Assay Kit (Promega) and Lumistar (BMG). The ratio of Firefly luciferase to Renila were used to calculate mean and S.D. of tetraplicates.
A vector containing the human LDL-receptor promoter coupled to Firefly luciferase reporter was made. A mixture of the LDL-receptor vector and control pRL-TK vector was used to transfect HepG2 cells. Cells were incubated with 25OH-cholesterol (0.2 or 1 μM) alone or in the presence (black bars) or absence (gray bars) of Example 1 (1 μM) for 28 hours before measurement of luciferase and renila activity. The ratio of luciferase activity versus renila activity was calculated and the mean and SD of triplicates were expressed as percent of control.
Shortening the LDL-receptor promoter in the same reporter vector modifies the relative luciferase activity (FIG. 3A).

HepG2 cells = test: Uptake of Dil-LDL by HepG2 cells; assay type: cell-based; settings: 10 μM, 24 hours, Dil-LDL 6 μg/ml for last 4 hours, FIG. 5
Protocol: To determine if activation of LDL-receptor promoter also translated into an increase in functional LDL receptors, an LDL uptake assay was set up. HepG2 cells seeded at 8 10^4 cells per 8 well Biocoat slides (Beckton Dickinson) were treated with SCAP antagonist or 25OH-cholesterol for 20h and then incubated with 6 μg/ml of fluorescent Dil-LDL for 4 hours. The amount of fluorescent dye that accumulated in the lysosomes was quantified by fluorescence microscopy using Axioplan-2 Zeiss microscope equipped with DXC950P video camera (Sony) and red fluorescence filters.
HepG2 cells were treated for 24 hours in the presence of 0.5 μM Example 1 or 10 μM 25OH-cholesterol. Dil-LDL (6 μg/ml) were added 4 hours before the end of the incubation. Cells were washed and observed by fluorescence microscopy using rhodamine filters and video camera with fixed settings.

SMILES: CCOC1=CC2=C(CN(C)C)C[C@@H]3[C@H](C(O)C[C@@]4(C)[C@H]3CC[C@@]43OCOC34COCO4)[C@@]2(C)CC1 (stereo partly drawn) [Example 3, 3-Ethoxy-11-hydroxy-androst-3,5-diene-17α,17β-(1,3,6,8-tetraoxaspiro[4.4]nonan-4-yl)-6-methyldimethylamine]
displacement of the 14C-Example 2 labelling of SCAP (full length hamster SCAP; 100, 50, 20 μM test compound versus 5 μM 14C-Example 2, FIG. 1A): displaced in a dose dependant manner | competition with 14C-Example 2 labelling of truncated SCAP ([1]; 200 μM or 100 μM test compound versus 5 μM 14C-Example 2, FIG. 1B): competitive

photo-affinity labelling of SCAP by the radio-labelled compound (full length hamster SCAP; 5 μM 14C-Example 2, 30 min at 28° C., 365 nm UV 10 min, FIG. 1A): specifically labeled SCAP | photo-affinity labelling of truncated SCAP by the radio-labelled compound ([1]; 5 μM 14C-Example 2, membranes, FIG. 1B): can be labelled
SMILES: COc1cc(C(C)C)ccc1C1CCN(CCCCNC(=O)c2ccc(C(=O)c3ccccc3)cc2)CC1.Cl [Example 2, 4-(4-Benzoyl)-N-{4-[4-(4-isopropyl-2-methoxy-phenyl)-piperidin-1-yl]-butyl}-benzamide Hydrochloride]

SMILES: C[C@H](CCCC(C)(C)O)[C@H]1CC[C@H]2[C@@H]3CC=C4C[C@@H](O)CC[C@]4(C)[C@H]3CC[C@]12C [25OH-cholesterol, reference compound]
LDL-receptor promoter activity (luciferase/renila ratio) ([2]; 0.2 or 1 μM, 28 hours, HepG2, FIG. 2): represses LDL-receptor promoter activity | repression of shortened LDL-receptor promoter constructs ([2]; HepG2, FIG. 3B right): two sequences are involved: SRE and FP-1 | LDL uptake (Dil-LDL fluorescence) (HepG2 cells): reduced it
